Several values for one entry are separate records, joined by “and”; a condition that tells them apart may be missing. Equal entries are not always repeated.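 Assay format: 96-well plates, 48-hour exposure. GI50 is the concentration that inhibits growth by half. TGI marks complete inhibition of growth.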
Columns and labels:
Assay in all cases: NCI anticancer screen, dose series, 48 h
TK-10 renal = test system: TK-10 renal
DU-145 prostate = test system: DU-145 prostate
CCRF-CEM leukemia = test system: CCRF-CEM leukemia
MDA-N = test system: MDA-N
LOX IMVI melanoma = test system: LOX IMVI melanoma
UO-31 renal = test system: UO-31 renal
SF-268 CNS = test system: SF-268 CNS
HL-60(TB) leukemia = test system: HL-60(TB) leukemia
A498 renal = test system: A498 renal
NCI-H226 lung = test system: NCI-H226 lung
OVCAR-5 ovarian = test system: OVCAR-5 ovarian
UACC-257 melanoma = test system: UACC-257 melanoma
COLO 205 colon = test system: COLO 205 colon
SK-OV-3 ovarian = test system: SK-OV-3 ovarian
SK-MEL-2 melanoma = test system: SK-MEL-2 melanoma
HCT-116 colon = test system: HCT-116 colon
NCI/ADR-RES ovarian = test system: NCI/ADR-RES ovarian
HT29 colon = test system: HT29 colon
HOP-92 NSCLC = test system: HOP-92 NSCLC
ACHN renal = test system: ACHN renal
K-562 leukemia = test system: K-562 leukemia
IGROV1 ovarian = test system: IGROV1 ovarian
NCI-H460 lung = test system: NCI-H460 lung
OVCAR-4 ovarian = test system: OVCAR-4 ovarian
M14 melanoma = test system: M14 melanoma
BT-549 breast = test system: BT-549 breast
RXF 393 renal = test system: RXF 393 renal
CAKI-1 renal = test system: CAKI-1 renal
HS 578T breast = test system: HS 578T breast
OVCAR-8 ovarian = test system: OVCAR-8 ovarian
SF-539 CNS = test system: SF-539 CNS
PC-3 prostate = test system: PC-3 prostate
UACC-62 melanoma = test system: UACC-62 melanoma
MALME-3M melanoma = test system: MALME-3M melanoma
MDA-MB-435 = test system: MDA-MB-435
SN12C renal = test system: SN12C renal
KM12 colon = test system: KM12 colon
NCI-H522 lung = test system: NCI-H522 lung
NCI-H23 lung = test system: NCI-H23 lung
EKVX NSCLC = test system: EKVX NSCLC
OVCAR-3 ovarian = test system: OVCAR-3 ovarian
786-0 renal = test system: 786-0 renal
SF-295 CNS = test system: SF-295 CNS
SK-MEL-28 melanoma = test system: SK-MEL-28 melanoma
T-47D breast = test system: T-47D breast
HOP-62 NSCLC = test system: HOP-62 NSCLC
HCT-15 colon = test system: HCT-15 colon
MDA-MB-231 breast = test system: MDA-MB-231 breast
SW-620 colon = test system: SW-620 colon
SNB-19 CNS = test system: SNB-19 CNS
MCF7 breast = test system: MCF7 breast
SK-MEL-5 melanoma = test system: SK-MEL-5 melanoma
U251 CNS = test system: U251 CNS
SR leukemia = test system: SR leukemia
RPMI-8226 leukemia = test system: RPMI-8226 leukemia
MOLT-4 leukemia = test system: MOLT-4 leukemia
A549 NSCLC = test system: A549 NSCLC
SNB-75 CNS = test system: SNB-75 CNS
HCC-2998 colon = test system: HCC-2998 colon

C=CN1CCN(c2ccccc2)P1(=O)Oc1ccccc1 (stereo unspecified)
TGI (TK-10 renal): > 100 µM | TGI (DU-145 prostate): > 100 µM | TGI (CCRF-CEM leukemia): > 100 µM | TGI (MDA-N): > 100 µM | TGI (LOX IMVI melanoma): > 100 µM | TGI (UO-31 renal): 92.8 µM | TGI (SF-268 CNS): > 100 µM | TGI (HL-60(TB) leukemia): > 100 µM | TGI (A498 renal): > 100 µM | TGI (NCI-H226 lung): > 100 µM | TGI (OVCAR-5 ovarian): > 100 µM | TGI (UACC-257 melanoma): > 100 µM | TGI (COLO 205 colon): > 100 µM | TGI (SK-OV-3 ovarian): > 100 µM | TGI (SK-MEL-2 melanoma): > 100 µM | TGI (HCT-116 colon): > 100 µM | TGI (NCI/ADR-RES ovarian): > 100 µM | TGI (HT29 colon): > 100 µM | TGI (HOP-92 NSCLC): > 100 µM | TGI (ACHN renal): > 100 µM | TGI (K-562 leukemia): > 100 µM | TGI (IGROV1 ovarian): > 100 µM | TGI (NCI-H460 lung): > 100 µM | TGI (OVCAR-4 ovarian): > 100 µM | TGI (M14 melanoma): > 100 µM | TGI (BT-549 breast): > 100 µM | TGI (RXF 393 renal): > 100 µM | TGI (CAKI-1 renal): > 100 µM | TGI (HS 578T breast): > 100 µM | TGI (OVCAR-8 ovarian): > 100 µM | TGI (SF-539 CNS): > 100 µM | TGI (PC-3 prostate): > 100 µM | TGI (UACC-62 melanoma): > 100 µM | TGI (MALME-3M melanoma): > 100 µM | TGI (MDA-MB-435): > 100 µM | TGI (SN12C renal): > 100 µM | TGI (KM12 colon): > 100 µM | TGI (NCI-H522 lung): > 100 µM | TGI (NCI-H23 lung): > 100 µM | TGI (EKVX NSCLC): > 100 µM | TGI (OVCAR-3 ovarian): > 100 µM | TGI (786-0 renal): > 100 µM | TGI (SF-295 CNS): > 100 µM | TGI (SK-MEL-28 melanoma): > 100 µM | TGI (T-47D breast): > 100 µM | TGI (HOP-62 NSCLC): > 100 µM | TGI (HCT-15 colon): > 100 µM | TGI (MDA-MB-231 breast): > 100 µM | TGI (SW-620 colon): > 100 µM | TGI (SNB-19 CNS): > 100 µM | TGI (MCF7 breast): > 100 µM | TGI (SK-MEL-5 melanoma): > 100 µM | TGI (U251 CNS): > 100 µM | TGI (SR leukemia): > 100 µM | TGI (RPMI-8226 leukemia): > 100 µM | TGI (MOLT-4 leukemia): > 100 µM | TGI (A549 NSCLC): > 100 µM | TGI (SNB-75 CNS): > 100 µM | TGI (HCC-2998 colon): > 100 µM

C[C@@]12C(=O)OC(=O)[C@]1(C)[C@H]1CC[C@@H]2O1
GI50 (TK-10 renal): 0.25 µM | TGI (TK-10 renal): 0.608 µM and 0.792 µM | GI50 (DU-145 prostate): 1.37 µM | TGI (DU-145 prostate): 2.82 µM and 2.81 µM | GI50 (CCRF-CEM leukemia): 1.59 µM | TGI (CCRF-CEM leukemia): 10.8 µM and 7.85 µM | GI50 (MDA-N): 1.29 µM | TGI (MDA-N): 2.67 µM and 9.02 µM | GI50 (LOX IMVI melanoma): 1.44 µM | TGI (LOX IMVI melanoma): 2.89 µM and 6.79 µM | GI50 (UO-31 renal): 1.51 µM | TGI (UO-31 renal): 2.85 µM and 7.06 µM | GI50 (SF-268 CNS): 0.477 µM | TGI (SF-268 CNS): 1.75 µM and 3.85 µM | GI50 (HL-60(TB) leukemia): 1.39 µM | TGI (HL-60(TB) leukemia): 3.77 µM and 4.07 µM | GI50 (A498 renal): 1.47 µM | TGI (A498 renal): 2.84 µM and 2.69 µM | GI50 (NCI-H226 lung): 1.5 µM | TGI (NCI-H226 lung): 2.97 µM | GI50 (OVCAR-5 ovarian): 1.3 µM | TGI (OVCAR-5 ovarian): 3.46 µM and 7.72 µM | GI50 (UACC-257 melanoma): 1.49 µM | TGI (UACC-257 melanoma): 3.11 µM and 9.63 µM | TGI (COLO 205 colon): 1.69 µM and 1.01 µM | GI50 (SK-OV-3 ovarian): 1.48 µM | TGI (SK-OV-3 ovarian): 3.36 µM and 5.24 µM | GI50 (SK-MEL-2 melanoma): 1.26 µM | TGI (SK-MEL-2 melanoma): 2.77 µM and 3.38 µM | TGI (HCT-116 colon): 4.38 µM and 4.91 µM | GI50 (NCI/ADR-RES ovarian): 1.87 µM | TGI (NCI/ADR-RES ovarian): 4.94 µM and 25.5 µM | TGI (HT29 colon): 3.43 µM and 5.93 µM | GI50 (HOP-92 NSCLC): 0.846 µM | TGI (HOP-92 NSCLC): 2.2 µM and 2.96 µM | TGI (ACHN renal): 2.43 µM and 2.83 µM | GI50 (K-562 leukemia): 2.78 µM | TGI (K-562 leukemia): 10.1 µM and 8.85 µM | GI50 (IGROV1 ovarian): 1.8 µM | TGI (IGROV1 ovarian): 3.82 µM and 7.78 µM | GI50 (NCI-H460 lung): 2.45 µM | TGI (NCI-H460 lung): 10.3 µM and 9.87 µM | GI50 (OVCAR-4 ovarian): 1.79 µM | TGI (OVCAR-4 ovarian): 3.88 µM and 8.61 µM | TGI (M14 melanoma): 2.87 µM and 3.48 µM | TGI (BT-549 breast): 3.06 µM and 3.29 µM | TGI (RXF 393 renal): 1.46 µM and 1.7 µM | TGI (CAKI-1 renal): 2.11 µM and 2.29 µM | GI50 (HS 578T breast): 1.36 µM and 1.56 µM | TGI (HS 578T breast): 3 µM and 3.29 µM | GI50 (OVCAR-8 ovarian): 2.1 µM | TGI (OVCAR-8 ovarian): 4.93 µM and 18 µM | GI50 (SF-539 CNS): 1.62 µM | TGI (SF-539 CNS): 3.09 µM and 4.5 µM | GI50 (PC-3 prostate): 0.525 µM | TGI (PC-3 prostate): 2.02 µM and 1.23 µM | GI50 (UACC-62 melanoma): 1.36 µM | TGI (UACC-62 melanoma): 2.86 µM and 7.48 µM | GI50 (MALME-3M melanoma): 1.5 µM | TGI (MALME-3M melanoma): 2.99 µM and 3.08 µM | GI50 (MDA-MB-435): 1.62 µM | TGI (MDA-MB-435): 3.02 µM and 4.43 µM | GI50 (SN12C renal): 1.58 µM | TGI (SN12C renal): 3.21 µM and 4.43 µM | GI50 (KM12 colon): 1.37 µM | TGI (KM12 colon): 2.76 µM and 17.5 µM | GI50 (NCI-H522 lung): 1.11 µM | TGI (NCI-H522 lung): 2.43 µM and 3.21 µM | GI50 (NCI-H23 lung): 2.79 µM | TGI (NCI-H23 lung): 11.4 µM and 20.6 µM | GI50 (EKVX NSCLC): 0.556 µM | TGI (EKVX NSCLC): 1.76 µM and 1.9 µM | GI50 (OVCAR-3 ovarian): 0.871 µM | TGI (OVCAR-3 ovarian): 2.19 µM and 2.23 µM | GI50 (786-0 renal): 1.47 µM | TGI (786-0 renal): 2.85 µM and 3.56 µM | TGI (SF-295 CNS): 2.85 µM and 3.22 µM | GI50 (SK-MEL-28 melanoma): 1.54 µM | TGI (SK-MEL-28 melanoma): 3 µM and 11.1 µM | GI50 (T-47D breast): 1.47 µM | TGI (T-47D breast): 3.14 µM and 4.88 µM | GI50 (HOP-62 NSCLC): 1.81 µM | TGI (HOP-62 NSCLC): 3.34 µM and 5.73 µM | GI50 (HCT-15 colon): 2.03 µM | TGI (HCT-15 colon): 4.7 µM and 13.8 µM | GI50 (MDA-MB-231 breast): 1.51 µM | TGI (MDA-MB-231 breast): 3.04 µM and 3.24 µM | GI50 (SW-620 colon): 3.07 µM | TGI (SW-620 colon): 10.9 µM and 16.6 µM | GI50 (SNB-19 CNS): 1.23 µM | TGI (SNB-19 CNS): 2.53 µM and 2.83 µM | TGI (MCF7 breast): 2.29 µM and 21.3 µM | GI50 (SK-MEL-5 melanoma): 1.1 µM | TGI (SK-MEL-5 melanoma): 2.33 µM and 2.77 µM | TGI (U251 CNS): 2.64 µM and 2.91 µM | GI50 (SR leukemia): 6.78 µM | TGI (SR leukemia): 44.9 µM and 15.3 µM | GI50 (RPMI-8226 leukemia): 3.15 µM | TGI (RPMI-8226 leukemia): 18.2 µM and 6.29 µM | GI50 (MOLT-4 leukemia): 3.88 µM | TGI (MOLT-4 leukemia): 18 µM and 28.8 µM | GI50 (A549 NSCLC): 1.09 µM | TGI (A549 NSCLC): 2.92 µM and 4.9 µM | GI50 (SNB-75 CNS): 0.698 µM | TGI (SNB-75 CNS): 1.91 µM and 1.56 µM | GI50 (HCC-2998 colon): 1.03 µM | TGI (HCC-2998 colon): 3 µM and 2.69 µM

Source: PubChem BioAssay (NCI)
